Source: ChEMBL document CHEMBL1781982, “Evaluation of antioxidant and antimicrobial activities of Bergenin and its derivatives obtained by chemoenzymatic synthesis” (Eur J Med Chem, 2011)
Blank lines part the entries; values can stand above or below the compound they belong to. Activity calls are given as the source filed them. No cut-off for these calls is given here.

What was measured:
[1] = system: Staphylococcus aureus; assay: Antibacterial activity against Staphylococcus aureus MTCC 2940 at 2000 ug/ml after 24 hrs by agar-well diffusion method; type: functional; details: MTCC 2940, 24 h, read-out: DIZ
[2] = system: Klebsiella pneumoniae; assay: Antibacterial activity against Klebsiella pneumoniae MTCC 139 at 2000 ug/ml after 24 hrs by agar-well diffusion method; type: functional; details: MTCC 139, 24 h, read-out: DIZ
[3] = system: Radical scavenging activity; assay: Antioxidant activity assessed as DPPH free radical scavenging activity at 200 to 1000 uM after 5 mins; type: functional
[4] = target: Xanthine dehydrogenase/oxidase (Homo sapiens, UniProt P47989); assay: Inhibition of xanthine oxidase assessed as reduction of uric acid production from xanthine at 10 to 50 uM preincubated for 15 mins measured after 30 mins by spectrophotometry; details: 0.5 h
Xanthine dehydrogenase/oxidase, sequence (P47989 whole entry, the tested form may be a part): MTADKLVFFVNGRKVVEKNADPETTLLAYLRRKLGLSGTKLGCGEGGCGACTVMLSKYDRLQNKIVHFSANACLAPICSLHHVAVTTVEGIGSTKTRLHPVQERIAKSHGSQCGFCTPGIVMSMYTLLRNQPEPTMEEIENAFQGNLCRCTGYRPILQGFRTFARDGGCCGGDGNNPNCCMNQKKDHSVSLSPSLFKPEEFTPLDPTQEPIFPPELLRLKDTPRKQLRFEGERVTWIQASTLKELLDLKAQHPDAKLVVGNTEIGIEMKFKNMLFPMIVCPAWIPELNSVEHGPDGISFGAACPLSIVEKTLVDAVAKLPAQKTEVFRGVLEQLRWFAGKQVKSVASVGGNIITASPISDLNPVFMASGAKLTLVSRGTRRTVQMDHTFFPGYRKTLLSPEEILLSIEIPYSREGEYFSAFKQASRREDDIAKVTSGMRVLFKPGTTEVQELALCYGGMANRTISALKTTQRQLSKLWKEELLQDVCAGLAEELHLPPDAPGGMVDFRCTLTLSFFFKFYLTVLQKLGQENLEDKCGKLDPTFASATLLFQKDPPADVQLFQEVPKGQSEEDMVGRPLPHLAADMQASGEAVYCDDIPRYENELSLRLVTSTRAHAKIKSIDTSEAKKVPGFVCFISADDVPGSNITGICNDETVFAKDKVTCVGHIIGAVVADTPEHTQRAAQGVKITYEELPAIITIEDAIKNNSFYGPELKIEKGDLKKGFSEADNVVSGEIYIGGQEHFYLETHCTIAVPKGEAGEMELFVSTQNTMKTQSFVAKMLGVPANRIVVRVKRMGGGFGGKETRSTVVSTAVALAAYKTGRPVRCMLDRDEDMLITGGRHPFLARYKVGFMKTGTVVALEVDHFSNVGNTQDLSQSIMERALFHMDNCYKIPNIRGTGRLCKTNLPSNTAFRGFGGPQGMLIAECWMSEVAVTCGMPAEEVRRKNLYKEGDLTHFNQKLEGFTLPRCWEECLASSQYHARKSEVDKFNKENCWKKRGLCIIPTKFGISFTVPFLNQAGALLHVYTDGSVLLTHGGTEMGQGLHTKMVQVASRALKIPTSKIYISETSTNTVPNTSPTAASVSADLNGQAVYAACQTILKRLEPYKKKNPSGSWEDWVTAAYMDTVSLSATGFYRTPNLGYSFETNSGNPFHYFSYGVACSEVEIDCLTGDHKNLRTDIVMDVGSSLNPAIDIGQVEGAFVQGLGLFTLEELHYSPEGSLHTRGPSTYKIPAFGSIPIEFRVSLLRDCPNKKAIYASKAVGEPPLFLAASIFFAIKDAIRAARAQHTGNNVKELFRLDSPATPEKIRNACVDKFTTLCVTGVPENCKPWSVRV

[5] = system: Bacillus subtilis; assay: Antibacterial activity against Bacillus subtilis MTCC 441 at 2000 ug/ml after 24 hrs by agar-well diffusion method; type: functional; details: MTCC 441, 24 h, read-out: DIZ
[6] = system: Escherichia coli; assay: Antibacterial activity against Escherichia coli MTCC 739 at 2000 ug/ml after 24 hrs by agar-well diffusion method; type: functional; details: MTCC 739, 24 h, read-out: DIZ
[7] = system: Escherichia coli; assay: Antibacterial activity against Escherichia coli MTCC 739 at 30 ug/disc after 24 hrs; type: functional; details: MTCC 739, 24 h, read-out: DIZ
[8] = system: Klebsiella pneumoniae; assay: Antibacterial activity against Klebsiella pneumoniae MTCC 139 at 30 ug/disc after 24 hrs; type: functional; details: MTCC 139, 24 h, read-out: DIZ
[9] = system: Bacillus subtilis; assay: Antibacterial activity against Bacillus subtilis MTCC 441 at 30 ug/disc after 24 hrs; type: functional; details: MTCC 441, 24 h, read-out: DIZ
[10] = system: Staphylococcus aureus; assay: Antibacterial activity against Staphylococcus aureus MTCC 2940 at 30 ug/disc after 24 hrs; type: functional; details: MTCC 2940, 24 h, read-out: DIZ

inhibition (INH) [4]: Not Active
SMILES: CCCCCCCCCC(=O)Oc1cc2c(c(OC(C)=O)c1OC)[C@@H]1O[C@H](COC(C)=O)[C@@H](OC(C)=O)[C@H](OC(C)=O)[C@H]1OC2=O
zone of inhibition at 2000 µg/mL [1]: 3.2 mm | zone of inhibition at 2000 µg/mL [2]: 4.2 mm | Activity [3]: Active | zone of inhibition at 2000 µg/mL [5]: 3.9 mm | zone of inhibition at 2000 µg/mL [6]: 6.2 mm

inhibition (INH) [4]: Not Active
SMILES: COc1c(O)cc2c(c1O)[C@@H]1O[C@H](CO)[C@@H](O)[C@H](O)[C@H]1OC2=O [BERGENIN]
zone of inhibition at 2000 µg/mL [1]: 2.1 mm | zone of inhibition at 2000 µg/mL [2]: 2.5 mm | Activity [3]: Active | zone of inhibition at 2000 µg/mL [5]: 1.3 mm | zone of inhibition at 2000 µg/mL [6]: 3.3 mm

inhibition (INH) [4]: Not Active
SMILES: CCCCCC(=O)Oc1cc2c(c(OC(C)=O)c1OC)[C@@H]1O[C@H](COC(C)=O)[C@@H](OC(C)=O)[C@H](OC(C)=O)[C@H]1OC2=O
zone of inhibition at 2000 µg/mL [1]: 6.4 mm | zone of inhibition at 2000 µg/mL [2]: 5.4 mm | Activity [3]: Active | zone of inhibition at 2000 µg/mL [5]: 7.4 mm | zone of inhibition at 2000 µg/mL [6]: 21.4 mm

inhibition (INH) [4]: Not Active
SMILES: CCCCCCCCCCCCCC(=O)Oc1cc2c(c(OC(C)=O)c1OC)[C@@H]1O[C@H](COC(C)=O)[C@@H](OC(C)=O)[C@H](OC(C)=O)[C@H]1OC2=O
zone of inhibition at 2000 µg/mL [1]: 2.4 mm | zone of inhibition at 2000 µg/mL [2]: 3.1 mm | Activity [3]: Active | zone of inhibition at 2000 µg/mL [5]: 2.2 mm | zone of inhibition at 2000 µg/mL [6]: 5.4 mm

SMILES: NC[C@H]1O[C@H](O[C@H]2[C@H](O)[C@@H](O[C@H]3O[C@H](CO)[C@@H](O)[C@H](N)[C@H]3O)[C@H](N)C[C@@H]2N)[C@H](O)[C@@H](O)[C@@H]1O [KANAMYCIN]
zone of inhibition at 30 µg/disc [7]: 18 mm | zone of inhibition at 30 µg/disc [8]: 19.5 mm | zone of inhibition at 30 µg/disc [9]: 23.2 mm | zone of inhibition at 30 µg/disc [10]: 25.1 mm

SMILES: COc1c(OC(C)=O)cc2c(c1OC(C)=O)[C@@H]1O[C@H](COC(C)=O)[C@@H](OC(C)=O)[C@H](OC(C)=O)[C@H]1OC2=O [BERGENIN PENTAACETATE]
zone of inhibition at 2000 µg/mL [1]: 8.3 mm | zone of inhibition at 2000 µg/mL [2]: 5.1 mm | Activity [3]: Active | zone of inhibition at 2000 µg/mL [5]: 5.2 mm | zone of inhibition at 2000 µg/mL [6]: 16.2 mm

inhibition (INH) [4]: Not Active
SMILES: COc1c(OC(=O)c2ccccc2)cc2c(c1OC(C)=O)[C@@H]1O[C@H](COC(C)=O)[C@@H](OC(C)=O)[C@H](OC(C)=O)[C@H]1OC2=O
zone of inhibition at 2000 µg/mL [1]: 5.5 mm | zone of inhibition at 2000 µg/mL [2]: 6.3 mm | Activity [3]: Active | zone of inhibition at 2000 µg/mL [5]: 4.3 mm | zone of inhibition at 2000 µg/mL [6]: 9.3 mm

SMILES: COc1c(O)cc2c(c1OC(C)=O)[C@@H]1O[C@H](COC(C)=O)[C@@H](OC(C)=O)[C@H](OC(C)=O)[C@H]1OC2=O
zone of inhibition at 2000 µg/mL [1]: 3.2 mm | zone of inhibition at 2000 µg/mL [2]: 3.3 mm | Activity [3]: Active | zone of inhibition at 2000 µg/mL [5]: 4.3 mm | zone of inhibition at 2000 µg/mL [6]: 14.1 mm

SMILES: O=c1c(O)c(-c2ccc(O)c(O)c2)oc2cc(O)cc(O)c12 [QUERCETIN]
inhibition (INH) [4]: Active
